The species entered for this data set is Homo sapiens. Briefly: Hepatic clearance in human. As to conditions: in vivo.
Molecule `CNS(=O)(=O)CCc1ccc2[nH]cc(C3CCN(C)CC3)c2c1` had a CL of 3.5 mL/min/kg.

Take `N=C(N)c1ccc(CNC(=O)[C@@H]2CCN2C(=O)[C@H](NCC(=O)O)C2CCCCC2)cc1`: the CL stood at 0.3 mL/min/kg. The result for `Nc1ncnc2c1ncn2CCOCP(=O)(O)O` [ADEFOVIR] reads 0.4 mL/min/kg. Then `C=CCc1ccccc1OCC(O)CNC(C)C` (configuration not stated) [ALPRENOLOL], with 14.4 mL/min/kg. Molecule `CC1(C)S[C@@H]2[C@H](NC(=O)[C@H](N)c3ccc(O)cc3)C(=O)N2[C@H]1C(=O)O` [AMOXICILLIN] came in with a CL of 1.4 mL/min/kg. The result for `CC1(C)S[C@@H]2[C@H](NC(=O)[C@H](N)c3ccccc3)C(=O)N2[C@H]1C(=O)O` [AMPICILLIN] reads 1.6 mL/min/kg. Then `CC(C)NCC(O)COc1ccc(COCCOC(C)C)cc1` (configuration not stated) [BISOPROLOL], with 1.4 mL/min/kg; and `CCCC1O[C@@H]2C[C@H]3[C@@H]4CCC5=CC(=O)C=C[C@]5(C)[C@H]4[C@@H](O)C[C@]3(C)[C@]2(C(=O)CO)O1` (some centres not stated) [BUDESONIDE], with 19 mL/min/kg; and `COc1cc(OC)c(C(=O)CCCN2CCCC2)c(OC)c1` [BUFLOMEDIL], with 4.3 mL/min/kg. The result for `COc1ccccc1OCCNCC(O)COc1cccc2[nH]c3ccccc3c12` (configuration not stated) [CARVEDILOL] reads 7.7 mL/min/kg; that for `CC1=C(C(=O)O)N2C(=O)[C@@H](NC(=O)[C@H](N)c3ccc(O)cc3)[C@H]2SC1` [CEFADROXIL], 0.2 mL/min/kg. In turn, `CO/N=C(\C(=O)N[C@@H]1C(=O)N2C(C(=O)O)=C(COC(N)=O)CS[C@H]12)c1ccco1` [CEFUROXIME] showed a CL of 0.1 mL/min/kg. Then `CC1=C(C(=O)O)N2C(=O)[C@@H](NC(=O)[C@H](N)C3=CCC=CC3)[C@H]2SC1` [CEPHRADINE], with 0.2 mL/min/kg; and `CCN(CC)CCCC(C)Nc1ccnc2cc(Cl)ccc12` (configuration not stated) [CHLOROQUINE], with 1.8 mL/min/kg. Regarding `Nc1ccn(C[C@@H](CO)OCP(=O)(O)O)c(=O)n1.O.O` [CIDOFOVIR], the CL was determined as 0.3 mL/min/kg. Then `c1ccc(C2(c3ccccc3)CC2C2=NCCN2)cc1` (configuration not stated) [CIFENLINE], with 4.4 mL/min/kg; and `O=C(O)[C@H]1/C(=C/CO)O[C@@H]2CC(=O)N21` [CLAVULANIC ACID], with 1.8 mL/min/kg; and `NC1CCN(c2c(F)cc3c(=O)c(C(=O)O)cn(C4CC4)c3c2Cl)C1` (configuration not stated) [CLINAFLOXACIN], with 1.5 mL/min/kg. The result for `Cc1onc(-c2c(Cl)cccc2Cl)c1C(=O)N[C@@H]1C(=O)N2[C@@H]1SC(C)(C)[C@@H]2C(=O)O` [DICLOXACILLIN] reads 0.8 mL/min/kg. The molecule `O=c1[nH]cnc2c1ncn2[C@H]1CC[C@@H](CO)O1` [DIDANOSINE] had a CL of 4.2 mL/min/kg.

In turn, `COc1ccc([C@@H]2Sc3ccccc3N(CCN(C)C)C(=O)[C@@H]2OC(C)=O)cc1` [DILTIAZEM] came in with a CL of 3.8 mL/min/kg.

The molecule `C[C@H]1O[C@@H](n2cc(F)c(=O)[nH]c2=O)[C@H](O)[C@@H]1O` [DOXIFLURIDINE] registered a CL of 6.7 mL/min/kg. The result for `CCOc1ccc(/C=C2\NCCc3cc(OCC)c(OCC)cc32)cc1OCC` [DROTAVERINE] reads 3.5 mL/min/kg; that for `CCN(CC)C(=O)/C(C#N)=C/c1cc(O)c(O)c([N+](=O)[O-])c1` [ENTACAPONE], 5.3 mL/min/kg. The molecule `CC(C)(C)NC(=O)[C@H]1CC[C@H]2[C@@H]3CC=C4C=C(C(=O)O)CC[C@]4(C)[C@H]3CC[C@]12C` [EPRISTERIDE] returned a CL of 0.3 mL/min/kg.

With `CCCCc1ncc(/C=C(\Cc2cccs2)C(=O)O)n1Cc1ccc(C(=O)O)cc1` [EPROSARTAN], the CL is 1.2 mL/min/kg. The result for `C[C@]12CC[C@@H]3c4ccc(OC(=O)N(CCCl)CCCl)cc4CC[C@H]3[C@@H]1CC[C@@H]2OP(=O)(O)O` [ESTRAMUSTINE PHOSPHATE] reads 0.9 mL/min/kg; that for `CCNCC(O)c1cccc(O)c1` (configuration not stated) [ETILEFRINE], 10 mL/min/kg; that for `C[C@@H]1O[C@@H]1P(=O)(O)O` [FOSFOMYCIN], 0.02 mL/min/kg.

`CN[C@@H]1CCc2[nH]c3ccc(C(N)=O)cc3c2C1` [FROVATRIPTAN] displayed a CL of 1.5 mL/min/kg. Then `COc1c(N2CCNC(C)C2)c(F)cc2c(=O)c(C(=O)O)cn(C3CC3)c12` (configuration not stated) [GATIFLOXACIN], with 0.5 mL/min/kg; and `CN1C2CCCC1CC(NC(=O)c1nn(C)c3ccccc13)C2` (configuration not stated) [GRANISETRON], with 8.1 mL/min/kg. Then `N=C(N)NC(=O)Cc1c(Cl)cccc1Cl` [GUANFACINE], with 2.9 mL/min/kg. Then `CCC(C)n1ncn(-c2ccc(N3CCN(c4ccc(OCC5COC(Cn6cncn6)(c6ccc(Cl)cc6Cl)O5)cc4)CC3)cc2)c1=O` (configuration not stated) [ITRACONAZOLE], with 5.1 mL/min/kg; and `Nc1nc2c(c(=O)[nH]1)N(C=O)C(CNc1ccc(C(=O)N[C@@H](CCC(=O)O)C(=O)O)cc1)CN2` (some centres not stated) [LEUCOVORIN], with 4.5 mL/min/kg. Regarding `CC(=O)NC[C@H]1CN(c2ccc(N3CCOCC3)c(F)c2)C(=O)O1` [LINEZOLID], the CL came out at 1.2 mL/min/kg.

`O=C1Nc2ccc(Cl)cc2C(c2ccccc2Cl)=NC1O` (configuration not stated) [LORAZEPAM]: the CL is 1 mL/min/kg. Then `CN1C(=O)C(O)N=C(c2ccccc2Cl)c2cc(Cl)ccc21` (configuration not stated) [LORMETAZEPAM], with 4 mL/min/kg. Then `CN(Cc1cnc2nc(N)nc(N)c2n1)c1ccc(C(=O)N[C@@H](CCC(=O)O)C(=O)O)cc1` [METHOTREXATE], with 0.4 mL/min/kg; and `C[C@](N)(Cc1ccc(O)c(O)c1)C(=O)O` [METHYLDOPA], with 1.4 mL/min/kg; and `CCN(CC)CCNC(=O)c1cc(Cl)c(N)cc1OC` [METOCLOPRAMIDE], with 4.6 mL/min/kg.

For the molecule `Cc1ccccc1N1C(=O)c2cc(S(N)(=O)=O)c(Cl)cc2NC1C` (configuration not stated) [METOLAZONE], the CL is 0.3 mL/min/kg. For the molecule `Cc1[nH]c(=O)c(C#N)cc1-c1ccncc1` [MILRINONE], the CL was found to be 1.2 mL/min/kg. For the molecule `COc1nc(C)nc(Cl)c1N=C1NCCN1` [MOXONIDINE], the CL is 3.5 mL/min/kg.

In the case of `CC(C)[C@H]1CC[C@H](C(=O)N[C@H](Cc2ccccc2)C(=O)O)CC1` [NATEGLINIDE], the CL came to 1.7 mL/min/kg.

As for `COCCOC(=O)C1=C(C)NC(C)=C(C(=O)OC(C)C)C1c1cccc([N+](=O)[O-])c1` (configuration not stated) [NIMODIPINE], the CL was 15 mL/min/kg. As to `COC(=O)C1=C(C)NC(C)=C(C(=O)OCC(C)C)C1c1ccccc1[N+](=O)[O-]` (configuration not stated) [NISOLDIPINE], the CL came to 15 mL/min/kg.

`CC1COc2c(N3CCN(C)CC3)c(F)cc3c(=O)c(C(=O)O)cn1c23` (configuration not stated) [OFLOXACIN]: the CL is 0.8 mL/min/kg. The result for `CCC(CC)O[C@@H]1C=C(C(=O)O)C[C@H](N)[C@H]1NC(C)=O` [OSELTAMIVIR CARBOXYLATE] reads 0.3 mL/min/kg; that for `COc1ccc(Cc2nccc3cc(OC)c(OC)cc23)cc1OC` [PAPAVERINE], 11 mL/min/kg. Then `C[C@H](/C=C/[C@H](C)C(C)(C)O)[C@H]1CC[C@H]2/C(=C/C=C3C[C@@H](O)C[C@H](O)C3)CCC[C@]12C` [PARICALCITOL], with 0.9 mL/min/kg; and `CC1(C)S[C@@H]2[C@H](NC(=O)COc3ccccc3)C(=O)N2[C@H]1C(=O)O` [PENICILLIN V], with 5.1 mL/min/kg.

(Values after ChEMBL document CHEMBL1156824, “Physicochemical space for optimum oral bioavailability: contribution of human intestinal absorption and first-pass elimination” (J Med Chem, 2010).)
